{
  "source": "patent US20250114430A1",
  "about": "“MODIFIED PEPTIDOMIMETICS AND METHODS OF USE” (The University of North Carolina at Chapel Hill, priority 2021, published 2025)",
  "key": {"SCNN1B mice": {"tested_on": "SCNN1B mice", "test": "SCNN1B (βENaC) overexpressing mice, chronic pulmonary inflammation", "format": "in vivo", "description": "SCNN1B and littermate control mice were exposed to ELD607 or vehicle intranasally on a daily basis for 11 days, starting on day 1 post-partum.\nFIG. 32 panel A: Mice were infected with P. aeruginosa for 24 h; then, 0.5 mg/kg ELD607 was added intratracheally. BAL was collected 24 h later to determine cell counts. SCNN1B mice were given 0.5 mg/kg ELD607 daily for 11 days before sacrifice and BAL collection. FIG. 32 panel B: Survival of bENaC mice.\nAdditional models were tested such as the house dust mite (HDM) allergic lung inflammation model (FIG. 20); and SCNN1B-overexpression, wherein mice develop mucus obstruction and spontaneous pulmonary inflammation (FIG. 21).\nRepeated ELD607 exposure reduces chronic inflammation in βENaC overexpressing mice. We added ELD607 to βENaC overexpressing mice, which spontaneously develop chronic infection and neutrophilia and have increased mortality (FIG. 32, panel A)."}, "E. coli LPS": {"tested_on": "E. coli LPS", "test": "E. coli LPS sepsis model, intravenous ELD607", "format": "in vivo, mice", "settings": "LPS intraperitoneally", "description": "We injected mice intraperitoneally with E. coli LPS, followed by 0.5 mg/kg ELD607 injected intravenously 1 h later."}, "NFAT": {"tested_on": "NFAT", "test": "NFAT-GFP relocation to the nucleus in HEK293T cells after stimulation of SOCE", "format": "cell-based", "settings": "thapsigargin", "excerpt": "To determine whether ELD607 internalized Orai1, total internal reflection fluorescence (TIRF) microscopy was used to measure Orai1 in the plasma membrane. […] However, ELD607 reduced Orai1 plasma membrane expression by ˜50% (FIG. 26, panels A-B). […] We expressed NFAT-GFP in HEK293T cells and evaluated the ability of ELD607 to attenuate NFAT relocation to the nucleus after stimulation of SOCE by confocal microscopy. ELD607 reduced the percentage of NFAT in the nucleus by greater than 50% (FIG. 26, panels C-D)."}, "P. aeruginosa": {"tested_on": "P. aeruginosa", "test": "Murine model of P. aeruginosa bacterial pneumonia", "format": "in vivo, mice", "description": "FIGS. 15A-15D show (FIG. 15A) a schematic of a murine model of P. aeruginosa (top left panel), and bar graphs of (FIG. 15B) BAL monocytes, (FIG. 15C) BAL neutrophils, and (FIG. 15D) bacterial counts in whole lung at 24 hours quantified following experiments according to the mouse model as schematized and conditions as noted on the x-axis.\nFIGS. 16A-16G show data from further P. aeruginosa infection experiments. […] Increased inflammation is seen in infection as indicated in the alveolar/gas exchange regions of the lungs which show alveolar damage and thickening that prevent gas exchange. ELD607 treatment normalized alveoli histology similar to naïve lung conditions.\nMice were exposed to vehicle or P. aeruginosa±ELD607 and BAL was obtained and stained with an anti-Orai1 antibody, fluorescent 2° and DAPI. […] FIG. 16G panels B and C show plots showing fluorescence intensities of Orai1 in macrophages and neutrophils, respectively. ***p<0.001 different as indicated. ND=no detectable neutrophils in these groups.\nFurther in vivo experiments were performed. […] Bronchoalveolar lavage (BAL) and organ collection was performed 24 hours following treatment with peptide (FIG. 15A). […] Moreover, 24 h after infection, about 10^9 CFUs could be detected in murine whole lung homogenate. However, ELD607 caused an ˜5 log10 reduction in lung bacteria (FIG. 15D).\nMice were exposed to vehicle or P. aeruginosa±ELD607 and BAL was obtained and stained with an anti-Orai1 antibody, fluorescent 2° and DAPI. […] FIG. 16G panels B and C show plots showing fluorescent intensities of Orai1 in macrophages and neutrophils, respectively.\nTo examine Orai1 levels, BAL was then obtained from P. aeruginosa-infected mice, immediately cytospun, fixed in PFA and stained with an antibody against Orai1."}, "[1]": {"settings": "10^7 CFU, 0.51 mg/kg intranasal"}},
  "note": "Entries after “also recorded” stand apart in the source; their conditions may differ. No end group written: not given here.",
  "data": [
    {"sequence": "VHDIVNMLIRG [ELD607, VHDIVNMLIRG]", "values": [
      {"measurement": "survival of βENaC overexpressing mice", "setting": "SCNN1B mice; daily intranasal 0.5 mg/kg", "result": "increased survival"},
      {"measurement": "neutrophils in SCNN1B (βENaC) mice", "setting": "SCNN1B mice; daily intranasal 0.5 mg/kg, 11 days", "result": "significantly reduced lung neutrophilia; also recorded: significantly decreased BAL neutrophil levels"},
      {"measurement": "BAL cells in WT littermate mice", "setting": "SCNN1B mice; daily intranasal, 11 days", "result": "no effect on WT mice"},
      {"measurement": "blood macrophages", "setting": "E. coli LPS; 0.5 mg/kg intravenously", "result": "significantly increased blood macrophages"},
      {"measurement": "blood neutrophilia", "setting": "E. coli LPS; 0.5 mg/kg intravenously", "result": "significantly reduced blood neutrophilia"},
      {"measurement": "weight loss", "setting": "E. coli LPS; 0.5 mg/kg intravenously 1 h later", "result": "significant prevented weight loss"},
      {"measurement": "reduction of the percentage of NFAT in the nucleus", "setting": "NFAT", "result": "greater than 50%"},
      {"measurement": "BAL monocytes", "setting": "P. aeruginosa; 10^7 CFU intratracheally, 0.51 mg/kg peptide intranasal 1 hour later, 24 hours", "result": "significantly retained monocyte levels"},
      {"measurement": "BAL lactate dehydrogenase (LDH)", "setting": "P. aeruginosa; [1]", "result": "significantly reduced"},
      {"measurement": "BAL neutrophil elastase", "setting": "P. aeruginosa; [1]", "result": "significantly reduced"},
      {"measurement": "BAL total protein", "setting": "P. aeruginosa; [1]", "result": "significantly reduced"},
      {"measurement": "BAL neutrophils", "setting": "P. aeruginosa; 10^7 CFU, 0.51 mg/kg intranasal, 24 hours", "result": "reduced neutrophil levels"},
      {"measurement": "survival", "setting": "P. aeruginosa; 10^9 CFU/ml P. aeruginosa, 48 hours post-infection", "result": "significantly improved survival"},
      {"measurement": "bacterial counts in the spleen", "setting": "P. aeruginosa; 24 hours post ELD607 treatment", "result": "reduced bacterial counts in the spleen"},
      {"measurement": "BAL neutrophils, delayed treatment", "setting": "P. aeruginosa; ELD607 added 24 hours after infection", "result": "reduced"},
      {"measurement": "BAL Macrophage Inflammatory Protein 2 (MIP-2)", "setting": "P. aeruginosa; P. aeruginosa infected mice", "result": "reduced"},
      {"measurement": "BAL interleukin-17 (IL-17)", "setting": "P. aeruginosa; P. aeruginosa infected mice", "result": "reduced"},
      {"measurement": "BAL keratinocytes-derived chemokine (KC)", "setting": "P. aeruginosa; P. aeruginosa infected mice", "result": "reduced"},
      {"measurement": "IL-6", "setting": "P. aeruginosa; P. aeruginosa infected mice", "result": "reduced"},
      {"measurement": "interleukin-1β (IL-1β)", "setting": "P. aeruginosa; P. aeruginosa infected mice", "result": "reduced"},
      {"measurement": "lung histology", "setting": "P. aeruginosa; P. aeruginosa infected mice", "result": "normalization of alveoli"},
      {"measurement": "tumor necrosis factor-α (TNF-α)", "setting": "P. aeruginosa; P. aeruginosa infected mice", "result": "reduced"},
      {"measurement": "weight loss", "setting": "P. aeruginosa; intranasal 10^7 CFU/ml P. aeruginosa, 24 hours", "result": "prevented the total weight loss"},
      {"measurement": "Orai1 levels in BAL cells (anti-Orai1 staining)", "setting": "P. aeruginosa; naïve and P. aeruginosa-infected mice", "result": "reduces Orai1 in murine BAL macrophages; also recorded: significant decrease in Orai1 levels"},
      {"measurement": "reduction in lung bacteria", "setting": "P. aeruginosa; whole lung homogenate, 24 h after infection", "result": "~5", "unit": "log10"}
    ]}
  ]
}
